Reference: patent US11434267B2, “Peptides having reduced toxicity that stimulate cholesterol efflux” (The Regents of the University of California, priority 2013, dated 2022)
Each block holds one compound with its values, some of them ahead of it. Positions of bridges follow the written chain, without caps; N, C: chain ends. Non-standard residues stand in square brackets, D forms with d. No end group written: not given here. R8 = C=CCCCCCC[C@@](C)(N)C(=O)O; Cit = NC(=O)NCCC[C@H](N)C(=O)O; S5 = C=CCCC[C@](C)(N)C(=O)O

Tests used:
[1] = scaled values = (raw log(P) + 2.061)/4.484; cited from earlier work
C57Bl/6 mice = type: in vivo; details: 300 mg/kg IP, male chow-fed C57Bl/6 mice; for TG elevating effect (plasma TG, cholesterol): 4 and 6 h
Procedure: The high-dose cytotoxic response of ATI-5261 observed in rat, rabbit and cynomolgus monkey is additionally recapitulated in mice (FIG. 4). Male chow-fed C57bl/6 mice were injected intraperitonelly (IP) with 30 or 300 mg/kg of lipid-fee ATI-5261. Blood was collected via the retro-orbital plexus 4 h after peptide injection and plasma subsequently obtained for measurement of CPK (Panel A) and ALT and AST activities (Panel B, ALT left bars, AST, right bars). Values are means±SD, n=4 mice per group.
This example illustrates that aromatic phenylalanine residues associated with the non-polar surface of ATI-5261 contributed to the majority of the peptide toxicity (FIG. 5). […] Blood was collected via retro-orbital plexus 4 h after injection for isolation of plasma. Levels of plasma CPK (Panel A), ALT (panel B) and AST (Panel C) were determined as described in FIG. 1. Values are means±SD, n=4 mice per group.
The concentrations of plasma lipids in C57Bl/6 mice following administration of the aliphatic analogs of ATI-5261 was also determined. […] All values (mg/dl) are means±SD, n=4, determined at 4 and 6 h post treatment with peptide.

ABCA1 [2] = target: T1, ABCA1 (Mus musculus, UniProt P41233); assay: ABCA1-dependent cholesterol efflux from [3H]cholesterol-labeled J774 macrophages with and without cAMP; type: cell-based; details: cAMP treated J774, dose response, 4 h
T1 construct: treated (18 h) with a cAMP analog to induce ABCA1 protein expression; endogenous in cells; host or cells: J774 macrophages
T1 sequence (P41233 whole entry): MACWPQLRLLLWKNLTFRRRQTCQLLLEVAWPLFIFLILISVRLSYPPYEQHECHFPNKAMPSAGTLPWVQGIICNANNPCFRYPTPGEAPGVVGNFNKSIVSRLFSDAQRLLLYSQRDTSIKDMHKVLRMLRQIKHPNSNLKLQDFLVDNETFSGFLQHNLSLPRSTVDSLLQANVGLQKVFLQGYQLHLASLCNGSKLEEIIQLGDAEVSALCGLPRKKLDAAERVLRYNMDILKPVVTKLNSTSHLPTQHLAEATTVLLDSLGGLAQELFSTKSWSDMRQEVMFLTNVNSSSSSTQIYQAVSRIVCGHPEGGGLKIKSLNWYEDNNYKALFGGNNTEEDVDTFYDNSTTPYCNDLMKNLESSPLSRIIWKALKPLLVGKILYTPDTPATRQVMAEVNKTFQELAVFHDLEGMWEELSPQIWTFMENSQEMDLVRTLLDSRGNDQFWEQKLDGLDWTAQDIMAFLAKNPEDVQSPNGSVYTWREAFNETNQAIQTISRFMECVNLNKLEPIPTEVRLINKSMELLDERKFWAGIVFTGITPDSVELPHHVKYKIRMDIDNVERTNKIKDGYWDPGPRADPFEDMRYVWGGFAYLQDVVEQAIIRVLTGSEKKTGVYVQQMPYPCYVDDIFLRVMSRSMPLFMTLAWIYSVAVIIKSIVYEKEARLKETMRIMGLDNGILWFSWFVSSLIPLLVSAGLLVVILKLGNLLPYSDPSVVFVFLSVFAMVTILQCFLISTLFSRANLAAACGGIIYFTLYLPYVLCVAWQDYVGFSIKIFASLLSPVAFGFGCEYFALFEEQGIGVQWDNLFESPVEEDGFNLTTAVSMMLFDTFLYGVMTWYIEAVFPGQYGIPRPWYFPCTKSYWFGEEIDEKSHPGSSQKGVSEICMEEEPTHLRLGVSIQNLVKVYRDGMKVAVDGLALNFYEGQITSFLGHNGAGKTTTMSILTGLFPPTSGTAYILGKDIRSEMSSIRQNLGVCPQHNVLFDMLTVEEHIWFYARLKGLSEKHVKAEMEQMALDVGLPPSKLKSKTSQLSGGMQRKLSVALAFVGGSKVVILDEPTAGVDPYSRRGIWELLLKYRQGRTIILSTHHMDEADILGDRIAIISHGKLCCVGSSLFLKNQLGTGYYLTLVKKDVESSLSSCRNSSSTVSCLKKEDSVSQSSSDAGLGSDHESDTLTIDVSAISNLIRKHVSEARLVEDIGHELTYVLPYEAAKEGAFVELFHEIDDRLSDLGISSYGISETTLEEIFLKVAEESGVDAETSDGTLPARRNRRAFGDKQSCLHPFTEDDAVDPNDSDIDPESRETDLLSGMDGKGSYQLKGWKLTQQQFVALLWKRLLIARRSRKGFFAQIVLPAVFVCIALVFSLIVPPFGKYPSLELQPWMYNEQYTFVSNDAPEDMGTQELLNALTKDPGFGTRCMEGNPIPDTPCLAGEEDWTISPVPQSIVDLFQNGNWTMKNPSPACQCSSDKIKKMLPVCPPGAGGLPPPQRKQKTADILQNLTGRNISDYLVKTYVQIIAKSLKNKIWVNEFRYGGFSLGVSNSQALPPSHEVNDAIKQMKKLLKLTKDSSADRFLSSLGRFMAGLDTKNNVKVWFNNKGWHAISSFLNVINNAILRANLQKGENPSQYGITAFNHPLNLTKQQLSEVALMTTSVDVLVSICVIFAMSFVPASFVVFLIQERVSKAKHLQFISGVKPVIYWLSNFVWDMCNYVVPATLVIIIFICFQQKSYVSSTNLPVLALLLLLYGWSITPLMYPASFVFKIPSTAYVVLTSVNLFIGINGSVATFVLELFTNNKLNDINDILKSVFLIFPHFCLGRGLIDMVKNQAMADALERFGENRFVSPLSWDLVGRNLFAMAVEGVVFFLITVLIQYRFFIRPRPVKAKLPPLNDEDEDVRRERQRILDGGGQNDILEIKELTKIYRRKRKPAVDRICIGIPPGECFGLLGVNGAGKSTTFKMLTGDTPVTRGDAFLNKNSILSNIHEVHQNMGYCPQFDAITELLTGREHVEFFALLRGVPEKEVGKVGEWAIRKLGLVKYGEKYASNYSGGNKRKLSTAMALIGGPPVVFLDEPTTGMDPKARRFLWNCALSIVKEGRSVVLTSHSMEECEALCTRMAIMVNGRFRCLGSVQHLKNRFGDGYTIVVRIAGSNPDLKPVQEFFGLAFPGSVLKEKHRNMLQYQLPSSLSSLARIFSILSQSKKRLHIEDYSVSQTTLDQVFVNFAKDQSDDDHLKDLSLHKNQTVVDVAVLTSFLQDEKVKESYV
Description: Suitable cholesterol efflux assays are described in, e.g., Bielicki, J. K and Oda, M. N., Biochemistry, 41:2089-2096 (2002); Jia et al., Biochem. Biophys. Res. Common., 297:206-213 (2002). In some embodiments, a polypeptide known to mediate cholesterol efflux (e.g., helix 9/10 of Apo A-I) is used to screen for additional mediators of cholesterol efflux in a cell based assay. For example, cell lines in which cholesterol efflux can be enhanced using a cAMP analog that up-regulates ABCA1 protein expression (e.g., J774 macrophages) can conveniently be used to assess the ability of a polypeptide of the present invention to mediate cholesterol efflux. The cells are incubated with labeled cholesterol (e.g., [^3H]cholesterol) under conditions appropriate for cholesterol uptake by the cells. Thus, cAMP or cAMP analogs (e.g., CPT-cAMP) are incubated with the cells for a suitable time before the initiation of cellular cholesterol efflux, i.e., prior to contacting the cells with a test polypeptide. Measurement of labeled cholesterol appearing in the medium is used to determine the cholesterol efflux mediating activity of the test polypeptide.
Aliphatic analogs of ATI-5261 lacking phenylalanine residues retained potent ABCA1 selective cholesterol efflux activity (FIG. 7). J774 macrophages were labeled (48 h) with [^3H]cholesterol and treated (18 h) with a cAMP analog to induce ABCA1 protein expression; cells incubated in the absence of cAMP (left bars) served as controls. […] Peptides were used at a concentration of 30 μg/ml, which was maximal for promoting cholesterol efflux activity. Panel B—Dependence of cholesterol efflux on the concentration of peptides. […] Results are expressed as the difference in cholesterol efflux (%/4 h) observed using cAMP treated vs. non-treated J774 cells. Values are means±SD, n=3.

ABCA1 [3] = target: T1, ABCA1; assay: as above; type: cell-based; details: J774, cAMP vs no cAMP; 10 μg/ml lipid-free

Compound: CC(C)[C@H](N)C(=O)O [Valine]
Hydrophobicity [1]: 0.825

Compound: EVRSKLEEWFAAFREFAEEFLARL [Peptide T5766-5]
cytotoxic/toxic response (plasma CPK, ALT, AST) (C57Bl/6 mice; 4 h): appeared to reduce the toxic responses
muscle toxicity (plasma CPK activity) (C57Bl/6 mice; 4 h): greatly reduced muscle toxicity

peptide concentration at saturation of cholesterol efflux (ABCA1 [2]): 3 µg/mL
Compound: T6275-5: citrulline form of LeuATI-5261 with single citrulline14→L substitution (EV[Cit]SKLEEWLAALLELAEELLARLKS) [Peptide T6275-5]

Compound: T5505-9: ATI-5261 analog with L24A; W9L substitutions (EVRSKLEELLAALRELAEELLARAKS; synthetic amphipathic alpha-helix cholesterol efflux peptide T5505-9, LeuATI-5261 analog)
Km for cholesterol efflux (ABCA1 [2]): 0.58 µg/mL
peptide concentration at saturation of cholesterol efflux (ABCA1 [2]): ~3 µg/mL
TG elevating effect (plasma TG, cholesterol) (C57Bl/6 mice): markedly reduced the increase in plasma CPK and AST as well as TG elevating activity
muscle toxicity (plasma CPK activity) (C57Bl/6 mice; 4 h): markedly reduced the increase in plasma CPK and AST as well as TG elevating activity
plasma ALT / AST (C57Bl/6 mice; 4 h): markedly reduced the increase in plasma CPK and AST as well as TG elevating activity

Compound: NCCCC[C@H](N)C(=O)O [Lysine]
Hydrophobicity [1]: 0.283

Compound: CC[C@H](C)[C@H](N)C(=O)O [Isoleucine]
Hydrophobicity [1]: 0.943

Compound: T5554-4: E→Q analog bearing citrulline substitutions (EV[Cit]SKLQEWFAAFREFAEEFLARLKS) [Peptide T5554-4]
cytotoxic/toxic response (plasma CPK, ALT, AST) (C57Bl/6 mice; 4 h): retained strong toxic (CPK, ALT, and AST) and TG elevating responses

Compound: CSCC[C@H](N)C(=O)O [Methionine]
Hydrophobicity [1]: 0.738

Compound: EVRSKLEEWFAAFREFAEEFLARLNS [Peptide T5594-4]
muscle toxicity (plasma CPK activity) (C57Bl/6 mice; 4 h): greatly reduced muscle toxicity

Compound: EARSKAEEWLAALLELAEELLARAKS [Peptide T5211-2]
cytotoxic/toxic response (plasma CPK, ALT, AST) (C57Bl/6 mice; 4 h): displayed little or no toxic responses and low TG in plasma

Compound: N[C@@H](CCC(=O)O)C(=O)O [Glutamate]
Hydrophobicity [1]: 0.043

Compound: T5554-5: E→Q analog bearing citrulline substitutions, net charge −1 (EV[Cit]SKLQEWFAAF[Cit]EFAQEFLARLKS) [Peptide T5554-5]
cytotoxic/toxic response (plasma CPK, ALT, AST) (C57Bl/6 mice; 4 h): retained strong toxic (CPK, ALT, and AST) and TG elevating responses

Compound: CS6259: leucine form of ATI-5261 with glutamine at positions 3 and 23 and a chemical staple (EVQSKLEEWLAAL[R8]ELAEEL[S5]AQLKS; staple 14-21)
ABCA1-dependent cholesterol efflux activity (ABCA1 [3]): highly dependent on ABCA1 comparable to ATI-5261

Compound: EVRSKLEEWLAALRELAEELLARLKS [Peptide T5055-13]
TG elevating effect (plasma TG, cholesterol) (C57Bl/6 mice): greatly attenuated
muscle toxicity (plasma CPK activity) (C57Bl/6 mice; 4 h): residual toxicity

Compound: N=C(N)NCCC[C@H](N)C(=O)O [Arginine]
Hydrophobicity [1]: 0.000

Compound: EARSKAEEWLAALRELAEELLARAKS [Peptide T5505-12]
TG elevating effect (plasma TG, cholesterol) (C57Bl/6 mice): produced low toxicity and greatly ablated TG elevating effects
cytotoxic/toxic response (plasma CPK, ALT, AST) (C57Bl/6 mice; 4 h): produced low toxicity and greatly ablated TG elevating effects

Compound: N[C@@H](Cc1c[nH]cn1)C(=O)O [Histidine]
Hydrophobicity [1]: 0.165

Compound: EVRSKLEEWLAALRELAEELAARLKS [Peptide T4883-7]
TG elevating effect (plasma TG, cholesterol) (C57Bl/6 mice): further reduced cytotoxic response and TG elevating effects
cytotoxic/toxic response (plasma CPK, ALT, AST) (C57Bl/6 mice; 4 h): further reduced cytotoxic response and TG elevating effects
muscle toxicity (plasma CPK activity) (C57Bl/6 mice; 4 h): sufficient to eliminate the residual muscle toxicity

Compound: NCC(=O)O [Glycine]
Hydrophobicity [1]: 0.501

Compound: NC(=O)C[C@H](N)C(=O)O [Asparagine]
Hydrophobicity [1]: 0.236

Compound: T5594-5: ATI-5261 analog with all lysine residues (R>K substitutions) (EVKSKLEEWFAAFKEFAEEFLAKLKS; synthetic amphipathic alpha-helix cholesterol efflux peptide T5594-5, ATI-5261 analog)
cytotoxic/toxic response (plasma CPK, ALT, AST) (C57Bl/6 mice; 4 h): displayed cytotoxic and TG elevating activity

Compound: O=C(O)[C@@H]1CCCN1 [Proline]
Hydrophobicity [1]: 0.711

Compound: EVNSKLEEWLAALNELAEELLARLKS [Peptide T5766-4]
muscle toxicity (plasma CPK activity) (C57Bl/6 mice; 4 h): greatly reduced the increase in CPK and TG elevating effects

Compound: C[C@H](N)C(=O)O [Alanine]
Hydrophobicity [1]: 0.616

Compound: EVRSKLEEWIAAIREIAEEILARLKS [Peptide T6991-1]
muscle toxicity (plasma CPK activity) (C57Bl/6 mice; 4 h): displayed little or no cytotoxic properties related to CPK elevations

Compound: EVRSKLQEWFAAFREFAQEFLARLKS [Peptide T5554-1]
cytotoxic/toxic response (plasma CPK, ALT, AST) (C57Bl/6 mice; 4 h): produced a large increase in the toxic response

peptide concentration at saturation of cholesterol efflux (ABCA1 [2]): 3 µg/mL
Compound: T7983-11: Y26 analog of T6991-2 (S26→Y for 125I labeling) (EV[Cit]SKLEEWIAAI[Cit]EIAEEILARLKY) [Peptide T7983-11]
ABCA1-dependent cholesterol efflux activity (ABCA1 [3]): functional, mediating high-levels of cholesterol efflux in an ABCA1-dependent manner

Compound: EVQSKLEEWLAALQELAEELLARLKS [Peptide T5766-3]
muscle toxicity (plasma CPK activity) (C57Bl/6 mice; 4 h): greatly reduced the increase in CPK and TG elevating effects

Compound: CS6257: ATI-5261 with uncharged alanine at positions 3 and 23 and a chemical staple (EVASKLEEWFAAF[S5]EFAEEF[R8]AALKS; staple 14-21)
ABCA1-dependent cholesterol efflux activity (ABCA1 [3]): highly dependent on ABCA1 comparable to ATI-5261

Compound: CS6256A: ATI-5261 with glutamine at positions 3 and 23 and a chemical staple (EVQSKLEEWFAAF[S5]EFAEEF[R8]AQLKS; staple 14-21)
ABCA1-dependent cholesterol efflux activity (ABCA1 [3]): highly dependent on ABCA1 comparable to ATI-5261

Compound: N[C@@H](Cc1c[nH]c2ccccc12)C(=O)O [Tryptophan]
Hydrophobicity [1]: 0.878

Compound: N[C@@H](Cc1ccccc1)C(=O)O [Phenylalanine]
Hydrophobicity [1]: 1.00

Compound: EVRSKLEEWLAALRELAEELLARAKS [Peptide T4883-6]
TG elevating effect (plasma TG, cholesterol) (C57Bl/6 mice): further reduced cytotoxic response and TG elevating effects
cytotoxic/toxic response (plasma CPK, ALT, AST) (C57Bl/6 mice; 4 h): further reduced cytotoxic response and TG elevating effects
muscle toxicity (plasma CPK activity) (C57Bl/6 mice; 4 h): sufficient to eliminate the residual muscle toxicity

Compound: N[C@@H](Cc1ccc(O)cc1)C(=O)O [Tyrosine]
Hydrophobicity [1]: 0.880

Compound: C[C@@H](O)[C@H](N)C(=O)O [Threonine]
Hydrophobicity [1]: 0.450
